Data as given in US8012984B2, “Substituted pyrazinone melanin concentrating hormone receptor-1 antagonists and methods” (Bristol-Myers Squibb Company, priority 2007, dated 2011).

Legend:
[1] = target: T1, human melanin concentrating hormone receptor (MCHR1) (Homo sapiens, UniProt Q99705, A5T/E4Q); assay: Radioligand binding assay for assessment of MCHR1 activity; conditions: membranes of HEK-293 cells expressing mutated hMCHR1; competition with [125I]-MCH
T1 construct: expressed in transfected cells; host or cells: HEK-293 (stably transfected), membranes
T1 sequence (Q99705 whole entry E4Q/A5T): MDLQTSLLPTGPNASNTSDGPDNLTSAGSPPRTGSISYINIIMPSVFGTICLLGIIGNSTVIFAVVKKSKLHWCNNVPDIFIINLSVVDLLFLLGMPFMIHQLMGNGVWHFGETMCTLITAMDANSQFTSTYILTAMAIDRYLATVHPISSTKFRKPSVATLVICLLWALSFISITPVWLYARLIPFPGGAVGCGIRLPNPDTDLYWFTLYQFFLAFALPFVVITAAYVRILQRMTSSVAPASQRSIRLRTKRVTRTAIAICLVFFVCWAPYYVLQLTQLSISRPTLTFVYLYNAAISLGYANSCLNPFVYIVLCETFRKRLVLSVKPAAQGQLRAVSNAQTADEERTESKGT
Experimental: Compounds of Formula I were initially characterized in an in vitro binding assay to determine their Ki or ability to antagonize binding of a peptide agonist to the human melanin concentrating hormone receptor (MCHR1).
Membranes from stably transfected HEK-293 cells expressing a mutated (E4Q, AST) hMCHR1 receptor were prepared by dounce homogenization and differential centrifugation. Binding experiments were carried out with 0.5-1.0 ug of membrane protein incubated in a total of 0.2 ml in 25 mM HEPES (pH 7.4) with 10 mM MgCl2, 2 mM EGTA, and 0.1% BSA (Binding Buffer) for 90 min. For competition binding assays, reactions were carried out in the presence of with 0.06-0.1 nM [Phe^n, [^125I]Tyr^19]-MCH and increasing concentrations of unlabeled test molecules. Reactions were terminated by rapid vacuum filtration over 96 well-GFC Unifilter plates pre-coated with 0.075 ml binding buffer containing 1% BSA, and washed 3 times with 0.4 ml of Phospho-buffered Saline (pH 7.4) containing 0.01% TX-100. Filters were dried; 0.05 ml microscint 20 was added to each well and radioactivity was subsequently quantified by scintillation counting on a TopCount™ microplate scintillation counter (Packard). Inhibitory constants were determined by nonlinear least squares analysis using a four parameter logistic equation.

MCHR1 = target: T2, MCHR1 (Rattus norvegicus, UniProt P97639); assay: Assessment of in vivo MCHR1 activity (body weight and food consumption in rats with choice of diets); set-up: species or system Sprague Dawley rats
T2 construct: from tissue; host or cells: whole animal: male Sprague Dawley rats
T2 sequence (P97639 whole entry): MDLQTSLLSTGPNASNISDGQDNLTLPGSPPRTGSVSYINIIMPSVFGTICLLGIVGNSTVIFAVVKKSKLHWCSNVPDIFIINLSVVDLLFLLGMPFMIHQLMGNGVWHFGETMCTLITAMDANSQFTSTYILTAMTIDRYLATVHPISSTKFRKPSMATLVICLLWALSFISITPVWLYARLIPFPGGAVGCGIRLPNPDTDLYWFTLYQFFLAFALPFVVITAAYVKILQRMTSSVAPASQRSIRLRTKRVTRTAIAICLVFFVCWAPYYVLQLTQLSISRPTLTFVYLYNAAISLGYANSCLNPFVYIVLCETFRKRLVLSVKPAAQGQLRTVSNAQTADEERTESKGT
Experimental: Male Sprague Dawley (CD, Charles River Breeding Laboratory) rats weighing approximately 240 grams were placed in individual plastic cages with AlphaDri bedding. The room was maintained at 72° F. and 50% humidity, and a 12/12 light dark cycle with lights out at 1600 hours. The rats were conditioned for 5 days prior to the start of the study to having a choice of foods.
Baseline body weight was measured prior to drug treatment on day 0 of the study. Baseline food consumption was the average of the 3 days prior to the first drug treatment. […] All data were evaluated using ANOVA and Fishers PLSD statistics.

[2] = 30 mg/kg p.o. daily, day 0 through day 4, male Sprague Dawley rats
[3] = 45 mg/kg p.o. daily, male Sprague Dawley rats

SMILES | Ki [1] [nM] | further results
Cc1cc(-n2ccnc(OCCc3cccc(Cl)c3)c2=O)ccc1OCC(C)(C)O [Example 155] | 45 | 
Cc1cc(-n2ccnc(SCCc3ccc(F)cc3)c2=O)ccc1OCC(C)(C)O [Example 124] | 9 | 
COc1cc(-n2ccnc(Sc3ccccc3C(F)(F)F)c2=O)ccc1OCC(C)(C)O [Example 40] | 3220 | 
CCc1cc(-n2ccnc(SCCc3ccc(F)cc3)c2=O)ccc1OCC(C)(C)O [Example 125] | 17 | 
CC(C)(O)COc1ccc(-n2ccnc(Sc3ccc(C(F)(F)F)cc3)c2=O)cn1 [Example 157] | 1730 | 
COc1cc(-n2ccnc(Sc3ccc(C(F)(F)F)cc3)c2=O)ccc1OCC(C)O (stereo not shown) [Example 71] | 62 | 
COc1cc(-n2ccnc(SCCCc3ccccc3)c2=O)ccc1OC[C@@H](C)O [Example 19] | 3130 | 
CCc1cc(-n2ccnc(SCCc3ccccc3)c2=O)ccc1OCC(C)(C)O [Example 65] | 10 | 
COc1cc(-n2ccnc(SC(C)Cc3ccccc3)c2=O)ccc1OCC(C)(C)O (stereo not shown) [Example 46] | 232 | 
COc1cccc(Sc2nccn(-c3ccc(OCC(C)(C)O)c(OC)c3)c2=O)c1 [Example 39] | 1580 | 
COc1cc(-n2ccnc(Sc3nc4ccc(Cl)cc4s3)c2=O)ccc1OCC(C)(C)O [Example 59] | 125 | 
COc1cc(-n2ccnc(Sc3ccc(OC(F)(F)F)cc3)c2=O)ccc1OCC(O)C1CC1 (stereo not shown) [Example 67] | 28 | 
Cc1cc(-n2ccnc(Sc3ccc(C(F)(F)F)cc3)c2=O)cnc1OCC(C)(C)O [Example 170] | 132 | 
COc1cc(-n2ccnc(Sc3ccc(C(F)(F)F)cc3)c2=O)ccc1OCC(C)OC(=O)[C@@H](N)C(C)C (stereo in doubt) [Example 202, 1-(2-Methoxy-4-(2-oxo-3-(4-(trifluoromethyl)phenylthio)pyrazin-1(2H)-yl)phenoxy)propan-2-yl 2-amino-3-methylbutanoate] |  | Weight Reduction versus Vehicle (MCHR1; [2]): 2.2%
Cc1cc(-n2ccnc(Sc3ccc(C(F)(F)F)cn3)c2=O)ccc1OCC(C)(C)O [Example 95, 1-(4-(2-Hydroxy-2-methylpropoxy)-3-methylphenyl)-3-(5-(trifluoromethyl)pyridin-2-ylthio)pyrazin-2(1H)-one] | 41 | 
COc1cc(-n2ccnc(SCc3ccccc3)c2=O)ccc1OCC(C)(C)O [Example 50] | 4660 | 
COc1cc(-n2ccnc(Sc3ccc(OC(F)(F)F)cc3)c2=O)ccc1OCC(C)(C)O [Example 38] | 20 | 

SMILES | Ki [1] [nM] | further results
Cc1cc(=O)n(CC(C)(C)O)c2ccc(-n3ccnc(Sc4ccc(OC(F)(F)F)cc4)c3=O)cc12 [Example 178] | 290 | 
COc1ccc(-n2ccnc(Sc3ccc(OC(F)(F)F)cc3)c2=O)cc1OC [Example 10] | 141 | 
COc1cc(-n2ccnc(Sc3ccccc3)c2=O)ccc1OCC(C)(C)O [Example 49] | 3040 | 
COc1cc(-n2ccnc(Sc3ccc(C(F)(F)F)cc3)c2=O)ccc1O[C@H]1COC[C@H]1O [Example 69] | 49 | 
Cc1cc(-n2ccnc(SCCc3ccccc3)c2=O)cnc1OCC(C)(C)O [Example 172] | 85 | 
COc1cc(-n2ccnc(SCCc3cccc(F)c3)c2=O)ccc1OCC(C)(C)O [Example 131] | 18 | 
CC(C)(O)COc1ncc(-n2ccnc(SCCc3ccccn3)c2=O)cc1Cl [Example 169] | 1290 | 
COc1cc(-n2ccnc(SCCc3ccccn3)c2=O)ccc1OCC(C)(C)O [Example 27, 1-(4-(2-Hydroxy-2-methylpropoxy)-3-methoxyphenyl)-3-(2-(pyridin-2-yl)-ethylthio)pyrazin-2(1H)-one] | 63 | Weight Reduction versus Vehicle (MCHR1; [3]): 4.1%
COc1cc(-n2ccnc(SCCc3ccncc3)c2=O)ccc1OCC(C)(C)O [Example 28] | 3150 | 
COc1cc(-n2ccnc(Sc3ccc(C(F)(F)F)cc3)c2=O)ccc1OCC(C)(C)OC(=O)CN [Example 193, 1-(2-Methoxy-4-(2-oxo-3-(4-(trifluoromethyl)phenylthio)pyrazin-1(2H)-yl)phenoxy)-2-methylpropan-2-yl 2-aminoacetate] |  | Weight Reduction versus Vehicle (MCHR1; 3 mg/kg p.o. daily, day 0 through day 4, male Sprague Dawley rats): 0.7%; Weight Reduction versus Vehicle (MCHR1; 10 mg/kg p.o. daily, day 0 through day 4, male Sprague Dawley rats): 2.1%; Weight Reduction versus Vehicle (MCHR1; [2]): 3.4%
Cc1cc(-n2ccnc(SCCc3ccccc3)c2=O)ccc1OCC(C)(C)O [Example 113, 1-(4-(2-Hydroxy-2-methylpropoxy)-3-methylphenyl)-3-(phenethylthio)pyrazin-2(1H)-one] | 8 | Weight Reduction versus Vehicle (MCHR1; [3]): 4.2%
Cc1cc(-n2ccnc(SCCc3ccccn3)c2=O)ccc1OCC(C)(C)O [Example 110, 1-(4-(2-Hydroxy-2-methylpropoxy)-3-methylphenyl)-3-(2-(pyridin-2-yl)ethylthio)pyrazin-2(1H)-one] | 17 | 
CCc1cc(-n2ccnc(OCCc3ccc(Cl)cc3)c2=O)ccc1OCC(C)(C)O [Example 151] | 64 | 
COc1cc(-n2ccnc(Sc3ccc(C(F)(F)F)cc3)c2=O)ccc1OCC(C)(C)O [Example 36] | 33 | 
CC(C)(O)COc1ccc(-n2ccnc(OCCc3ccc(F)cc3)c2=O)cc1Cl [Example 141] | 78 | 
COc1ccc(-n2ccnc(SCCc3ccc(Cl)cc3)c2=O)cc1OC [Example 3] | 576 | 
